We go through one substance from patent US9596849B2, “Composition containing sorbitan monocaprylate and alcohol” (Clariant International Ltd., priority 2009, dated 2017).

One test has as its system Aspergillus brasiliensis. In words: Minimum inhibitory concentration and synergistic effect (Kull) against Aspergillus brasiliensis. It counts as cell-based. The following applies: for QA (minimum inhibitory concentration of the pure substance A): pure sorbitan monocaprylate. From the text: (§1) Calculation of the synergistic effect according to the formula Qa/QA+Qb/QB=SE (synergistic effect, according to F. C. Kull et al., Applied Microbiology 1961, 9, 538), where Qa=minimum inhibitory concentration of the compound A in % in the mixture used, QA=minimum inhibitory concentration of the pure substance A, Qb=minimum inhibitory concentration of the compound B in % in the mixture used, and QB=minimum inhibitory concentration of the pure substance B.
(§2) Evaluation of the synergistic effect: where an SE>1 is obtained, there is an antagonistic effect; if SE=1, then the compounds are neutral in their behavior toward one another, and if SE<1, there is a synergistic effect.
(§3) Mixtures of sorbitan monocaprylate and phenoxyethanol or benzyl alcohol, in accordance with Examples 1) and 2), were investigated. The results with respect to synergism are set out in Tables A and B. “MIC blend” here is the minimum inhibitory concentration of the respective blend.

In another test the test system is Staphylococcus aureus. In words: Minimum inhibitory concentration and synergistic effect (Kull) against Staphylococcus aureus. The test is classed as cell-based. The following applies: for QA (minimum inhibitory concentration of the pure substance A): pure sorbitan monocaprylate.
From the text: as §1, §2, §3

Where [1] appears, read: Table A, sorbitan monocaprylate in 50:50 blend with phenoxyethanol.
Where [2] appears, read: Table B, sorbitan monocaprylate in 50:50 blend with benzyl alcohol.

Take sorbitan monocaprylate: the “QA (minimum inhibitory concentration of the pure substance A)” value in the test on Aspergillus brasiliensis (Table A) is reported as 0.016%; in the test with Aspergillus brasiliensis (Table B) it was 0.016%; in the test with Staphylococcus aureus (Table A), 0.25%; in the test on Staphylococcus aureus (Table B) it was 0.25%. For the same substance, the “Qa (minimum inhibitory concentration of compound A in the mixture used)” value in the test with Aspergillus brasiliensis (setting [1]) amounted to 0.004%; in the test on Aspergillus brasiliensis (setting [2]), 0.004%; in the test on Staphylococcus aureus (setting [1]), 0.0315%; with Staphylococcus aureus (setting [2]), 0.016%.
